Data taken from PubChem BioAssay AID1963448 (Molecular Pharmacology Branch, DTP, NCI, 2024).

System: 616215-338-R-J1-PDC complex spheroid growth, % test/control
Assay: Anticancer human tumor 616215-338-R-J1-PDC patient-derived colon adenocarcinoma cell line growth inhibition [Asc]
Conditions: for IC50: curve of first compound; for viability, T/C: stronger effect = lower value
Method in brief: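 Tumor cells were grown as complex spheroids with human endothelial cells (HUVEC) and human mesenchymal stem cells as stroma. Agents were tested alone and in combination, in half-log steps down from the clinical Cmax, or from 10 microM where Cmax was unknown.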
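Also: spheroids exposed to agents for seven days before readout.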
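For viability, T/C in this document: 100% = DMSO vehicle control viability.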

For `NC(=O)C(=Cn1cnc(-c2cc(C(F)(F)F)cc(C(F)(F)F)c2)n1)c1cncnc1` + CNC(C)C(=O)NC1CN(S(=O)(=O)c2cccc(S(=O)(=O)N3CCC4CCC(C(=O)NC(c5ccccc5)c5ccccc5)N4C(=O)C(NC(=O)C(C)NC)C3)c2)CCC2CCC(C(=O)NC(c3ccccc3)c3ccccc3)N2C1=O, which IC50 (second compound 0.00316 µM) is on record?
Its IC50 is over 300 nM.

What about the IC50 (second compound 0.01 µM) of the same molecule?
The IC50 was over 300 nM.

And the IC50 (second compound 0.0316 µM)?
Its IC50 is over 300 nM.

And the IC50 (second compound 0.1 µM)?
The IC50 was over 300 nM.

And the IC50 (second compound 0.316 µM)?
The IC50 was over 300 nM.

And the IC50 (second compound 1 µM)?
The IC50 was 191 nM.

And the viability, T/C (second compound 0.00316 µM, first compound 0.000949 µM)?
The viability, T/C was 104%.

And the viability, T/C (second compound 0.00316 µM, first compound 0.003 µM)?
The viability, T/C was 105%.

And the viability, T/C (second compound 0.00316 µM, first compound 0.00949 µM)?
The viability, T/C was 94.3%.

What about the viability, T/C (second compound 0.00316 µM, first compound 0.03 µM) of the same molecule?
The viability, T/C was 83.3%.

And the viability, T/C (second compound 0.00316 µM, first compound 0.0949 µM)?
The viability, T/C was 73.9%.

What about the viability, T/C (second compound 0.00316 µM, first compound 0.3 µM) of the same molecule?
Its viability, T/C is 53.2%.

What about the viability, T/C (second compound 0.01 µM, first compound 0.000949 µM) of the same molecule?
The viability, T/C was 107%.

And the viability, T/C (second compound 0.01 µM, first compound 0.003 µM)?
The viability, T/C was 108%.

And the viability, T/C (second compound 0.01 µM, first compound 0.00949 µM)?
Its viability, T/C is 96.2%.

And the viability, T/C (second compound 0.01 µM, first compound 0.03 µM)?
The viability, T/C was 72%.

And the viability, T/C (second compound 0.01 µM, first compound 0.0949 µM)?
The viability, T/C was 76.2%.

What about the viability, T/C (second compound 0.01 µM, first compound 0.3 µM) of the same molecule?
Its viability, T/C is 71.4%.

And the viability, T/C (second compound 0.0316 µM, first compound 0.000949 µM)?
Its viability, T/C is 115%.

What about the viability, T/C (second compound 0.0316 µM, first compound 0.003 µM) of the same molecule?
Its viability, T/C is 108%.

What about the viability, T/C (second compound 0.0316 µM, first compound 0.00949 µM) of the same molecule?
Its viability, T/C is 95.8%.

What about the viability, T/C (second compound 0.0316 µM, first compound 0.03 µM) of the same molecule?
The viability, T/C was 64.6%.

What about the viability, T/C (second compound 0.0316 µM, first compound 0.0949 µM) of the same molecule?
Its viability, T/C is 78.4%.

And the viability, T/C (second compound 0.0316 µM, first compound 0.3 µM)?
The viability, T/C was 54.7%.

And the viability, T/C (second compound 0.1 µM, first compound 0.000949 µM)?
The viability, T/C was 117%.

What about the viability, T/C (second compound 0.1 µM, first compound 0.003 µM) of the same molecule?
The viability, T/C was 110%.

And the viability, T/C (second compound 0.1 µM, first compound 0.00949 µM)?
The viability, T/C was 102%.

And the viability, T/C (second compound 0.1 µM, first compound 0.03 µM)?
Its viability, T/C is 68.5%.

And the viability, T/C (second compound 0.1 µM, first compound 0.0949 µM)?
The viability, T/C was 70.5%.

And the viability, T/C (second compound 0.1 µM, first compound 0.3 µM)?
The viability, T/C was 68.5%.

And the viability, T/C (second compound 0.316 µM, first compound 0.000949 µM)?
Its viability, T/C is 118%.

What about the viability, T/C (second compound 0.316 µM, first compound 0.003 µM) of the same molecule?
The viability, T/C was 118%.

What about the viability, T/C (second compound 0.316 µM, first compound 0.00949 µM) of the same molecule?
Its viability, T/C is 105%.

And the viability, T/C (second compound 0.316 µM, first compound 0.03 µM)?
The viability, T/C was 61.1%.

What about the viability, T/C (second compound 0.316 µM, first compound 0.0949 µM) of the same molecule?
The viability, T/C was 60.9%.

And the viability, T/C (second compound 0.316 µM, first compound 0.3 µM)?
The viability, T/C was 67%.

What about the viability, T/C (second compound 1 µM, first compound 0.000949 µM) of the same molecule?
The viability, T/C was 112%.

And the viability, T/C (second compound 1 µM, first compound 0.003 µM)?
Its viability, T/C is 110%.

And the viability, T/C (second compound 1 µM, first compound 0.00949 µM)?
The viability, T/C was 71.1%.

What about the viability, T/C (second compound 1 µM, first compound 0.03 µM) of the same molecule?
Its viability, T/C is 88.2%.

What about the viability, T/C (second compound 1 µM, first compound 0.0949 µM) of the same molecule?
Its viability, T/C is 59%.

What about the viability, T/C (second compound 1 µM, first compound 0.3 µM) of the same molecule?
The viability, T/C was 41.5%.
